tested on: HCT116 WT; assay: Proliferation of HCT116 colorectal cell line, Cell TiterGlo; format: cell-based, human; details: Homo sapiens, HCT-116, read-out: HCT116 IC50 (uM) HCT116 WT
Experimental: Briefly, compounds were tested for their effect on proliferation of HCT116 colorectal cell lines using Cell TiterGlo (Promega). Each compound was tested in a 10-point dose response experiment in triplicate. Multiple values in the column titled HCT116 WT reflect separate independent experiments. The three columns titled “HCT116 WT (repeat)”, “HCT116-CGN2KO” and “HCT116 WT+ISRIB” provide data for selected compounds that were tested simultaneously under three conditions. The HCT116 WT column lists IC50 against the wild type HCT116 colorectal cancer cell line. The HCT116-CGN2KO lists IC50 data for cells in which one component of the integrated stress response, GCN2, has been knocked out using CRISPR technology.

With `CSc1cccc(C(=O)Nc2cc(-c3ccc(NC(=O)c4ccccc4)cc3)nn2C)c1` [SW389160, N-(3-(4-Benzamidophenyl)-1-methyl-1H-pyrazol-5-yl)-3-(methylthio)benzamide] the IC50 was 0.226 µM.

same assay, conditions: Homo sapiens, HCT-116, read-out: HCT116 IC50 (uM) HCT116 WT (repeat)

With `CSc1cccc(C(=O)Nc2cc(-c3ccc(NC(=O)c4ccccc4)cc3)nn2C)c1` [SW389160, N-(3-(4-Benzamidophenyl)-1-methyl-1H-pyrazol-5-yl)-3-(methylthio)benzamide] the IC50 was 0.29 µM.

same assay, conditions: Homo sapiens, HCT-116, wild type HCT116; 10-point dose response in triplicate; multiple values = separate independent experiments; read-out: HCT116 IC50 (uM) HCT116 WT

`Cn1nc(-c2ccc(NC(=O)c3ccccc3Cl)cc2)cc1NC(=O)c1cccc(CN)c1` [SW394966, N-(4-(5-(3-(aminomethyl)benzamido)-1-methyl-1H-pyrazol-3-yl)phenyl)-2-chlorobenzamide] and `Cn1nc(-c2ccc(NC(=O)c3ccccc3Cl)cc2)cc1NC(=O)c1cccc(OCCN)c1` [SW394970, N-(4-(5-(3-(2-aminoethoxy)benzamido)-1-methyl-1H-pyrazol-3-yl)phenyl)-2-chlorobenzamide] are within 1.5-fold of each other in IC50: 0.055 µM for the first, 0.05 µM for the second.

Going from `COC(=O)c1cccc(C(=O)Nc2cc(-c3ccc(NC(=O)c4ccccc4Cl)cc3)nn2C)c1` [SW394878, Methyl 3-((3-(4-(2-chlorobenzamido)phenyl)-1-methyl-1H-pyrazol-5-yl)carbamoyl)benzoate] to `Cn1nc(-c2ccc(NC(=O)c3ccccc3Cl)cc2)cc1NC(=O)c1cccc(NS(C)(=O)=O)c1` [SW394895-1, 2-chloro-N-(4-(1-methyl-5-(3-(methylsulfonamido)benzamido)-1H-pyrazol-3-yl)phenyl)benzamide], the IC50 rises from 0.01 µM to 0.03 µM (3-fold). The first is the more potent here.

Compared with `Cn1nc(-c2ccc(NC(=O)OC(C)(C)C)cc2)cc1NC(=O)c1ccccc1` [SW388713, tert-Butyl (4-(5-benzamido-1-methyl-1H-pyrazol-3-yl)phenyl)carbamate], `Cn1nc(-c2ccc(NC(=O)C3CCC3)cc2)cc1NC(=O)c1ccccc1` [SW394491, N-(3-(4-(Cyclobutanecarboxamido)phenyl)-1-methyl-1H-pyrazol-5-yl)benzamide] is 11-fold higher in IC50: 1.1 µM for the first, 12 µM for the second. The first is the more potent here.

First: Cn1nc(-c2ccc(NC(=O)N3CCCC3)cc2)cc1NC(=O)c1ccccc1 [SW394893-1, N-(4-(5-benzamido-1-methyl-1H-pyrazol-3-yl)phenyl)pyrrolidine-1-carboxamide]
Second: Cn1nc(-c2ccc(NC(=O)c3ccccc3Cl)cc2)cc1NC(=O)N1CCCCC1 [SW394874, N-(3-(4-(2-Chlorobenzamido)phenyl)-1-methyl-1H-pyrazol-5-yl)piperidine-1-carboxamide]
The IC50 of the first is higher: greater than 5 µM for the first, 0.067 µM for the second.

Going from `Cn1nc(-c2ccc(NC(=O)c3ccccc3C#CCNC(=O)OC(C)(C)C)cc2)cc1NC(=O)c1ccccc1` [SW394544, tert-butyl(3-(2-((4-(5-benzamido-1-methyl-1H-pyrazol-3-yl)phenyl)carbamoyl)phenyl)prop-2-yn-1-yl)carbamate] to `Cn1nc(-c2ccc(NC(=O)c3ccccc3Cl)cc2)cc1NC(=O)c1cccc(OCCNC(=O)OC(C)(C)C)c1` [SW394968, tert-butyl (2-(3-((3-(4-(2-chlorobenzamido)phenyl)-1-methyl-1H-pyrazol-5-yl)carbamoyl)phenoxy)ethyl)carbamate], the IC50 falls from 1.2 µM to 0.062 µM (19-fold). The second is the more potent here.

`Cc1ncccc1C(=O)Nc1ccc(-c2cc(NC(=O)c3ccccc3)n(C)n2)cc1F` [SW394743, N-(4-(5-Benzamido-1-methyl-1H-pyrazol-3-yl)-2-fluorophenyl)-2-methylnicotinamide] and `Cc1ncccc1C(=O)Nc1ccc(-c2cc(NC(=O)c3ccccc3F)n(C)n2)cc1F` [SW394745, N-(2-Fluoro-4-(5-(2-fluorobenzamido)-1-methyl-1H-pyrazol-3-yl)phenyl)-2-methylnicotinamide] are within 1.5-fold of each other in IC50: 15 µM for the first, 21.7 µM for the second.

Compared with `Cn1nc(-c2ccc(NC(=O)c3ccccc3Cl)cc2)cc1NC(=O)c1cccc(OCCNc2ccc([N+](=O)[O-])c3nonc23)c1` [SW394971, 2-Chloro-N-(4-(1-methyl-5-(3-(2-((7-nitrobenzo[c][1,2,5]oxadiazol-4-yl)amino)ethoxy)benz-amido)-1H-pyrazol-3-yl)phenyl)benzamide], `Cn1nc(-c2ccc(NC(=O)c3ccccc3Cl)cc2)cc1NC(=O)c1cccc(C#CCN)c1` [SW394693, N-(4-(5-(3-(3-aminoprop-1-yn-1-yl)benzamido)-1-methyl-1H-pyrazol-3-yl)phenyl)-2-chlorobenzamide] is 8.5-fold higher in IC50: 0.02 µM for the first, 0.17 µM for the second.

First: Cn1nc(-c2ccc(NC(=O)c3ccccc3Cl)cc2)cc1NC(=O)N1CCOCC1 [SW394873, N-(3-(4-(2-Chlorobenzamido)phenyl)-1-methyl-1H-pyrazol-5-yl)morpholine-4-carboxamide]
Second: Cn1nc(-c2ccc(NC(=O)c3ccccc3Cl)cc2)cc1NC(=O)[C@H]1CCC[C@@H](N)C1 (single isomer, unassigned) [SW394869-isomer 1]
The IC50 of the first is 7.2-fold higher: 0.29 µM for the first, 0.04 µM for the second.

Going from `Cc1ncncc1C(=O)Nc1ccc(-c2cc(NC(=O)c3ccccc3)n(C)n2)cc1` [SW394598, N-(4-(5-Benzamido-1-methyl-1H-pyrazol-3-yl)phenyl)-4-methylpyrimidine-5-carboxamide] to `Cc1ncccc1C(=O)Nc1ccc(-c2cc(NC(=O)c3ccccc3)n(C)n2)cc1` [SW394518, N-(4-(5-Benzamido-1-methyl-1H-pyrazol-3-yl)phenyl)-2-methylnicotinamide], the IC50 falls from 0.55 µM to 0.016 µM (34-fold). The second is the more potent here.

Going from `C#CCOc1cccc(C(=O)Nc2cc(-c3ccc(NC(=O)c4cc(N=[N+]=[N-])ccc4Cl)cc3)nn2C)c1` [SW393213, 5-Azido-2-chloro-N-(4-(1-methyl-5-(3-(prop-2-yn-1-yloxy)benzamido)-1H-pyrazol-3-yl)phe-nyl)benzamide] to `C#CCOCc1ccccc1C(=O)Nc1ccc(-c2cc(NC(=O)c3cccc(N=[N+]=[N-])c3)n(C)n2)cc1` [SW393280, N-(4-(5-(3-azidobenzamido)-1-methyl-1H-pyrazol-3-yl)phenyl)-2-((prop-2-yn-1-yloxy)methyl)benzamide], the IC50 falls from 0.37 µM to 0.12 µM (3.1-fold).

First: COc1ccc(C(=O)Nc2cc(-c3ccc(NC(=O)c4ccccc4)cc3)nn2C)cc1 [SW388718, N-(3-(4-Benzamidophenyl)-1-methyl-1H-pyrazol-5-yl)-4-methoxybenzamide]
Second: Cn1nc(-c2ccc(NC(=O)c3ccccc3)cc2)cc1NC(=O)c1ccccc1 [SW106593, N-(4-(5-Benzamido-1-methyl-1H-pyrazol-3-yl)phenyl)benzamide]
The IC50 of the first is 9.2-fold higher: 2.03 µM for the first, 0.22 µM for the second.

Going from `Cn1nc(-c2ccc(CC(=O)c3ccccc3CCCNC(=O)CCCC[C@@H]3CC[C@]4(C)CCC[C@H]34)cc2)cc1CC(=O)c1ccccc1` [SW394657] to `Cn1nc(-c2ccc(NC(=O)c3ccccc3N3CCOCC3)cc2)cc1NC(=O)c1ccccc1` [SW394697, N-(4-(5-Benzamido-1-methyl-1H-pyrazol-3-yl)phenyl)-2-morpholinobenzamide], the IC50 rises from 0.044 µM to 0.77 µM (18-fold).

Compared with `O=C(Nc1cc(-c2ccc(NC(=O)c3ccccc3Cl)cc2)nn1Cc1ccccc1)c1ccccc1` [SW393215, N-(4-(5-Benzamido-1-benzyl-1H-pyrazol-3-yl)phenyl)-2-chlorobenzamide], `Cn1nc(-c2ccc(NC(=O)c3ccccc3-c3cccnc3)cc2)cc1NC(=O)c1ccccc1` [SW394486, N-(4-(5-Benzamido-1-methyl-1H-pyrazol-3-yl)phenyl)-2-(pyridin-3-yl)benzamide] is 25-fold lower in IC50: 0.62 µM for the first, 0.025 µM for the second. The second is the more potent here.

First: C#Cc1cccc(C(=O)Nc2cc(-c3ccc(NC(=O)c4ccccc4N=[N+]=[N-])cc3)nn2C)c1 [SW393185, 2-Azido-N-(4-(5-(3-ethynylbenzamido)-1-methyl-1H-pyrazol-3-yl)phenyl)benzamide]
Second: Cn1nc(-c2ccc(NC(=O)c3cccnc3Cl)cc2)cc1NC(=O)c1ccccc1 [SW394443, N-(4-(5-Benzamido-1-methyl-1H-pyrazol-3-yl)phenyl)-2-chloronicotinamide]
The IC50 of the first is 6.5-fold higher: 0.13 µM for the first, 0.02 µM for the second.

Compared with `Cn1nc(-c2ccc(NC(=O)c3ccccc3Cl)cc2)cc1NC(=O)C1CCC(F)(F)CC1` [SW394602, 2-Chloro-N-(4-(5-(4,4-difluorocyclohexane-1-carboxamido)-1-methyl-1H-pyrazol-3-yl)phen-yl)benzamide], `Cn1nc(-c2ccc(NC(=O)c3cccnc3C(F)(F)F)cc2)cc1NC(=O)c1ccccc1` [SW394603, N-(4-(5-Benzamido-1-methyl-1H-pyrazol-3-yl)phenyl)-2-(trifluoromethyl)nicotinamide] is 2.5-fold lower in IC50: 0.049 µM for the first, 0.02 µM for the second.

Work on `Cc1ncccc1C(=O)Nc1ccc(-c2cc(NC(=O)c3ccccc3)n(C)n2)c(F)c1` [SW394694, N-(4-(5-Benzamido-1-methyl-1H-pyrazol-3-yl)-3-fluorophenyl)-2-methylnicotinamide] yielded an IC50 of 0.03 µM.

same assay, conditions: read-out: HCT116 IC50 (uM) HCT116 WT + ISRIB; wild type HCT116, compound plus 10 nM of ISRIB

`CSc1cccc(C(=O)Nc2cc(-c3ccc(NC(=O)c4ccccc4)cc3)nn2C)c1` [SW389160, N-(3-(4-Benzamidophenyl)-1-methyl-1H-pyrazol-5-yl)-3-(methylthio)benzamide] showed an IC50 of 2.48 µM.

same assay, conditions: wild type HCT116; 10-point dose response in triplicate; multiple values = separate independent experiments

`CN1CCN(C(=O)Nc2cc(-c3ccc(NC(=O)c4ccccc4Cl)cc3)nn2C)CC1` [SW394875, N-(3-(4-(2-Chlorobenzamido)phenyl)-1-methyl-1H-pyrazol-5-yl)-4-methylpiperazine-1-carb-oxamide] was tested, and the “HCT116 IC50 (uM) HCT116 WT” value was “inactive”.
For `COc1cccc(C(=O)Nc2cc(-c3ccc(N)cc3)nn2C)c1` [SW388715, N-(3-(4-Aminophenyl)-1-methyl-1H-pyrazol-5-yl)-3-methoxybenzamide], the “HCT116 IC50 (uM) HCT116 WT” value was “inactive”.
In the case of `COc1ccc(C(=O)Nc2cc(-c3ccc(N)cc3)nn2C)cc1` [SW388717, N-(3-(4-Aminophenyl)-1-methyl-1H-pyrazol-5-yl)-4-methoxybenzamide], the “HCT116 IC50 (uM) HCT116 WT” value was “inactive”.
`O=C(Nc1ccc(-c2nnc(NC(=O)c3ccccc3Cl)o2)cc1)c1ccccc1Cl` [SW394597, 2-chloro-N-(4-(5-(2-chlorobenzamido)-1,3,4-oxadiazol-2-yl)phenyl)benzamide] was tested, and the “HCT116 IC50 (uM) HCT116 WT” value was “inactive”.
`CC(=O)N1CCN(C(=O)Nc2cc(-c3ccc(NC(=O)c4ccccc4Cl)cc3)nn2C)CC1` [SW394877, 4-Acetyl-N-(3-(4-(2-chlorobenzamido)phenyl)-1-methyl-1H-pyrazol-5-yl)piperazine-1-carb-oxamide] was tested, and the “HCT116 IC50 (uM) HCT116 WT” value was “inactive”.
